The record followed here is patent US4657856A (priority 1980, dated 1987).

In experiment [1] the test system is glutathione peroxidase produced from Mucor hiemalis YR-0929. Kind of experiment: substrate specificity of glutathione peroxidase (NADPH/glutathione reductase coupled assay, 340 nm). The settings on record: hydroperoxide as substrate of the enzyme; cumene hydroperoxide = 100. The experiment is classed as biochemical. On the procedure: The reaction is illustrated by the following formulae (1) and (2): [drawing 1] wherein GSSG represents oxidized glutathione, NADPH represents reduced nicotinamide adenine dinucleotide phosphate […] and NADP represents nicotinamide adenine dinucleotide phosphate.
(1) Substrate: 30 mM Cumene hydroperoxide aqueous solution: 0.2 ml
(2) Buffer: 100 mM Phosphate buffer (pH 7.0) containing 4 mM EDTA: 1.5 ml
(3) Reduced glutathione: 10 mM Aqueous solution: 0.3 ml
(4) Sodium azide: 10 mM Aqueous solution: 0.3 ml
(5) NADPH*: 1.6 mM Aqueous solution: 0.3 ml
(6) Glutathione reductase solution: Prepared by diluting with 100 mM phosphate buffer (pH 7.0) to 1 u/ml: 0.3 ml
(7) Enzyme solution: 0.1 ml
This enzyme acts upon cumene hydroperoxide, t-butyl hydroperoxide, linolenic acid hydroperoxide, etc.

Experiment [2] has the same test system. Description: inhibition of glutathione peroxidase enzymatic action. It is filed as biochemical. Conditions: 25° C., pH 7.0. Here is the method:
When reacted at 25° C. and pH 7.0, this enzymatic action is inhibited by the following substances.

Setting [3] is: inhibitor concentration 10^-3 M.
Where [4] appears, read: inhibitor concentration 10^-4 M.

Take `CC(C)(OO)c1ccccc1` [Cumene hydroperoxide]: the “Relative Activity (%)” value in experiment [1] is 100%.

As to `NC(=O)CI` [Iodoacetamide], the “Percent Inhibition (%)” value in experiment [2] (setting [3]) is recorded as 16%; in experiment [2] (setting [4]), 1%.

As for `CCN1C(=O)C=CC1=O` [N--Ethylmaleimide], the “Percent Inhibition (%)” value in experiment [2] (setting [3]) turned out to be 93%; in experiment [2] (setting [4]) it was 3%.

`O=C(O)c1cc[c]([Hg][Cl])cc1` [PCMB, Parachloromercurybenzoate]: the figures for the “Percent Inhibition (%)” value in experiment [2] (setting [3]) and in experiment [2] (setting [4]) were 99% and 75%, respectively.

Consider `CC(C)(C)OO` [t-Butyl hydroperoxide], for which the “Relative Activity (%)” value in experiment [1] worked out at 175%.

Regarding Linolenic acid hydroperoxide, the “Relative Activity (%)” value in experiment [1] is given as 98%.
